In series [1] the test system is Xylella fastidiosa strain Temecula-1 (PDT). Put plainly: microbe, parasite or virus in culture. The settings on record: for inhibition at 50 µM / inhibition at 25 µM: Xylella fastidiosa; for inhibition at 50 µM: 48 h, read-out: growth inhibition of Temecula1, 50 μM, 48 hrs, relative to untreated control; for inhibition / inhibition at 25 µM: 25 uM. In kind it is cell-based.

Series [2] concerns X. fastidiosa Temecula 1 in V. vinifera cv. Carignane. It counts as in vivo, Vitis vinifera. The settings on record: for leaves with PD symptoms: at the end of 3 months, untreated nearly 100%; for progression of PD symptoms: in vivo.
Series [3] deals with Xf PD strain in V. vinifera grapevines. On the set-up: species or system Vitis vinifera. The settings on record: in vivo.
The test system of series [4] is Ca. Liberibacter asiaticus (Las). It counts as in vivo, C. sinensis. The settings on record: soil drench 1 g/tree, Hamlins, as early as 20 days post treatment.
Series [5] has the same test system. It counts as in vivo, C. paradisi. The settings on record: soil drench 15 g/tree, grapefruits, as early as 20 days post treatment.
Series [6] concerns grapevine leaves (V. vinifera cv. Carignane). Put plainly: Leaf disc phytotoxicity, chlorophyll loss.
The subject of a further series is grapevines. Put plainly: Visible phytotoxicity in greenhouse after foliar spray or soil drench.
Series [7] deals with grapevine leaves (V. vinifera cv. Carignane).

Here are results for 8 molecules from patent US20210219549A1 (priority 2018, published 2021).

Where two headings read alike, the source gives them in different places. Bounds are passed on as bounds.

As a reminder, the inhibition is the change of the read-out against control, counted positive when it falls.

Take `Cc1cc2c(C(C)C)c(O)c(O)c(C=O)c2c(O)c1-c1c(C)cc2c(C(C)C)c(O)c(O)c(C=O)c2c1O` [gossypol]: in series [1], the inhibition at 50 µM is over 90%.

In series [1], `Cc1nccc2c(C)c3[nH]c4ccccc4c3cc12` [olivacine] came in with an inhibition of 100%.

For `CC1=CC(=O)c2ccccc2C1=O` [menadione, 2-methyl-1,4-naphthoquinone], in series [1], the inhibition at 25 µM was 100% and the inhibition at 50 µM was over 90%. Further, in series [2], the “leaves with PD symptoms” value is on record as about 50% and the “progression of PD symptoms” value is on record as “significantly reduced as well as delayed progression of PD symptoms”. Further, the “control of the progression of PD in field conditions” value in series [3] is on record as “Effective”. In addition, the “Las metabolic activity (peroxidase gene expression relative to EF1 alpha)” value in series [4] is listed as “measureable suppression of Las metabolic activity”. Further, the “Las metabolic activity (peroxidase gene expression relative to EF1 alpha)” value in series [5] is listed as “measureable suppression of Las metabolic activity”. In addition, the “loss in total chlorophyll content” value in series [6] (grapevine leaf discs, within 48 hours, all concentrations tested (as low as 25 mM), vs water-treated control) is on record as about 40%. The visible phytotoxicity entry with grapevines (foliar sprays) is “sporadic patches of purple pigmentation and necrosis”. The visible phytotoxicity result with grapevines (soil drench) is reported as “not evident”.

`COc1ccc2[nH]c3c(C)c4ccncc4c(C)c3c2c1` [9-methoxyellipticine]: the inhibition in series [1] was 100%.

In the case of `CC(Cc1ccc(O)c(O)c1)C(C)Cc1ccc(O)c(O)c1` (centres unmarked) [4,4′-(2,3 dimethyltetramethylene) dipyrocatechol], in series [1], at 25 µM the inhibition was 100% and the inhibition at 50 µM was over 90%.

The molecule `CC(=O)Oc1ccccc1C(=O)Nc1ncc([N+](=O)[O-])s1` [Nitazoxanide] gave an inhibition at 25 µM in series [1] of 100%.

In series [1], `Cc1cc2nc3c(=O)[nH]c(=O)nc-3n(C[C@H](O)[C@H](O)[C@H](O)CO)c2cc1N(C)C` [roseoflavin] had an inhibition of 100%.

As to `CC(C)(C)CC(C)(C)c1ccc(OCCOCC[N+](C)(C)Cc2ccccc2)cc1` [Benzethonium chloride], in series [2], the “leaves with PD symptoms” value is about 50%. In series [2], the “progression of PD symptoms” value is given as “significantly reduced as well as delayed progression of PD symptoms”. Besides, the “loss in chlorophyll content” value in series [7] was “increasingly significant loss in chlorophyll content”. For the same molecule, the “phytotoxicity in the chlorophyll degradation assay” value in series [6] (25 mM) is recorded as “no appreciable phytotoxicity”. The visible phytotoxicity entry in the series with grapevines (foliar sprays) and in the series with grapevines (soil drench) was “not evident” in each case.
